Where a name gives a salt, the structure may show the parent alone. Read-outs that look alike come from different tables or passages of the source. Blank lines part the entries; values can stand above or below the compound they belong to.
Tests used:
[1] = Solubility of the isolated product; conditions: for solubility in water (in words) / solubility: water
[2] = Reduction of lipids and cholesterol in rats treated orally; type: in vivo; conditions: for inhibition in vivo at 20 mg/kg / inhibition in vivo at 100 mg/kg: Rattus norvegicus, 96 h; for inhibition in vivo at 20 mg/kg: oral 20 mg/kg
[3] = normal diet, oral 50 mg/kg daily, 3 and 5 days

solubility in alcohol (in words) [1]: soluble in alcohol
solubility in water (in words) [1]: insoluble in water
Compound: CC(Oc1ccccc1Sc1ccc(Cl)cc1)C(=O)OCCNCCSCCCCCCCCCCSCCNCCOC(=O)C(C)Oc1ccccc1Sc1ccc(Cl)cc1 (racemic) [CRL 40 247, 6,17-Dithia-3,20-diaza-1,22-docosanediol di-(±)-[2-(4-chlorophenylthio)phenoxy-propionate]]

Compound: CC(CNCCO)Oc1ccc(Oc2ccc(Cl)cc2)cc1.Cl (racemic) [CRL 40 301, (±)-N-Hydroxyethyl-2-[4-(4-chlorophenoxy)-phenoxy]-1-propylamine hydrochloride]
solubility [1]: 200 mg/mL

Compound: CC(CNC(C)(C)CO)Oc1ccc(Oc2ccc(Cl)cc2)cc1.Cl (racemic) [CRL 40 302, (±)-N-(β-Hydroxy-α,α-dimethylethyl)-2-[4-(4-chlorophenoxy)-phenoxy]-1-propylamine hydrochloride]
solubility [1]: 200 mg/mL

Compound: CC(Oc1ccc(Sc2ccc(Cl)cc2)cc1)C(=O)O (racemic) [CRL 40,246, (±)-2-[4-Chlorophenylthio)-phenoxy]-propionic acid]
solubility in alcohol (in words) [1]: soluble in alcohol
solubility in water (in words) [1]: insoluble in water

solubility in water (in words) [1]: insoluble in water
Compound: CC(Sc1ccc(Oc2ccc(Cl)cc2)cc1)C(=O)O (racemic) [CRL 40,281, (±)-2-[4-(4-chlorophenoxy)-phenylthio]-propionic acid]

Compound: CC(Oc1ccc(Oc2ccc(Cl)cc2)cc1)C(=O)O (racemic) [CRL 40,299, (±)-2-[4-(4-Chlorophenoxy)-phenoxy]-propionic acid]
solubility in water (in words) [1]: insoluble in water

solubility in water (in words) [1]: water-insoluble
Compound: CC(Sc1ccc(Sc2ccc(Cl)cc2)cc1)C(=O)O (racemic) [CRL 40,351, (±)-2-[p-(p-Chlorophenylthio)-phenylthio]-propionic acid]

Compound: CC(Oc1ccc(Sc2ccc(Cl)cc2)cc1)C(=O)OCCSCCCCCCCCCCSCCOC(=O)C(C)Oc1ccc(Sc2ccc(Cl)cc2)cc1 (racemic) [CRL 40,390, 3,14-Dithia-1,16-hexadecyl di-(±)-{2-[p-(p-chlorophenylthio)-phenoxy]-propionate}]
inhibition in vivo at 20 mg/kg ([2]; 4 days, read-out: reduction in the cholesterol): 25%
inhibition in vivo at 20 mg/kg ([2]; 4 days, read-out: reduction in the lipids): 25%

Compound: CC(COC(=O)CSc1ccc(Sc2ccc(Cl)cc2)cc1)SCCCCCCCCCCSC(C)COC(=O)CSc1ccc(Sc2ccc(Cl)cc2)cc1 (racemic) [CRL 40,395, (±)-2,15-Dimethyl-3,14-dithia-1,16-hexadecyl di-[p-(p-chlorophenylthio)-phenylthio-acetate]]
inhibition in vivo at 100 mg/kg ([2]; oral 100 mg/kg, 4 days): 27%
reduction in the (total) lipids ([2]; oral 100 mg/kg, 4 days): 18%

Compound: CC(Sc1ccc(Sc2ccc(Cl)cc2)cc1)C(=O)OCCSCCCCCCCCCCSCCOC(=O)C(C)Sc1ccc(Sc2ccc(Cl)cc2)cc1 (racemic) [CRL 40,398, 3,14-Dithia-1,16-hexadecyl di-(±)-{2-[p-(p-chlorophenylthio)-phenylthio]-propionate}]
change in the cholesterol content (in words) ([2]; oral 100 mg/kg, 4 days): no change in the cholesterol content
reduction in the (total) lipids ([2]; oral 100 mg/kg, 4 days): 17%

Compound: CC(COC(=O)C(C)(C)Sc1ccc(Sc2ccc(Cl)cc2)cc1)SCCCCCCCCCCSC(C)COC(=O)C(C)(C)Sc1ccc(Sc2ccc(Cl)cc2)cc1 (racemic) [CRL 40,403, (±)-2,15-Dimethyl-3,14-dithia-1,16-hexadecyl di-{2-[p-(p-chlorophenylthio)-phenylthio]-2-methylpropionate}]
inhibition in vivo at 100 mg/kg ([2]; oral 100 mg/kg, 4 days): 32%
reduction in the (total) lipids ([2]; oral 100 mg/kg, 4 days): 10%

Compound: CC(Sc1ccc(Oc2ccc(Cl)cc2)cc1)C(=O)OCCSCCCCCCCCCCSCCOC(=O)C(C)Sc1ccc(Oc2ccc(Cl)cc2)cc1 (racemic) [CRL 40,408, 3,14-Dithia-1,16-hexadecyl di-(±)-{2-[p-(p-chlorophenoxy)-phenylthio]-propionate}]
inhibition in vivo at 100 mg/kg ([2]; oral 100 mg/kg, 4 days): 20%
reduction in the (total) lipids ([2]; oral 100 mg/kg, 4 days): 17%

Compound: CC(COC(=O)C(C)Sc1ccc(Oc2ccc(Cl)cc2)cc1)SCCCCCCCCCCSC(C)COC(=O)C(C)Sc1ccc(Oc2ccc(Cl)cc2)cc1 (racemic) [CRL 40,409, (±)-2,15-Dimethyl-3,14-dithia-1,16-hexadecyl di-(±)-{2-[p-(p-chlorophenoxy)-phenylthio]-propionate}]
reduction in the (total) lipids ([2]; oral 100 mg/kg, 4 days): 9-10%

solubility in alcohol (in words) [1]: insoluble in water and in alcohol
solubility in water (in words) [1]: insoluble in water
Compound: CC(Oc1ccc(S(=O)(=O)c2ccc(Cl)cc2)cc1)C(=O)OCCNCCSCCCCCCCCCCSCCNCCOC(=O)C(C)Oc1ccc(S(=O)(=O)c2ccc(Cl)cc2)cc1 (racemic) [CRL 40249, 6,17-Dithia-3,20-diaza-1,22-docosanediol di-(±)-2-[p-(p-chlorophenylsulphonyl)-phenoxy]-propionate]

Compound: CC(COS(C)(=O)=O)Oc1ccc(Oc2ccc(Cl)cc2)cc1 (racemic) [Example 34, (±)-2-[4-(4-Chlorophenoxy)-phenoxyl]-propyl mesylate]
solubility in water (in words) [1]: insoluble in water

solubility in alcohol (in words) [1]: soluble in alcohol
solubility in water (in words) [1]: insoluble in water
Compound: CC(C)(Oc1ccc(Sc2ccc(Cl)cc2)cc1)C(=O)OCCNCCSCCCCCCCCCCSCCNCCOC(=O)C(C)(C)Oc1ccc(Sc2ccc(Cl)cc2)cc1 [CRL 40 240, 6,17-Dithia-3,20-diaza-1,22-docosanediol di-p-(p-chlorophenylthio)-phenoxy-isobutyrate]

solubility in alcohol (in words) [1]: soluble in alcohol
solubility in water (in words) [1]: insoluble in water
Compound: CC(C)(Oc1ccc([S+]([O-])c2ccc(Cl)cc2)cc1)C(=O)OCCNCCSCCCCCCCCCCSCCNCCOC(=O)C(C)(C)Oc1ccc([S+]([O-])c2ccc(Cl)cc2)cc1 (centres unmarked) [CRL 40 242, 6,17-Dithia-3,20-diaza-1,22-docosanediol di-[4-(4-chlorosulphinyl)-phenoxy-isobutyrate]]

solubility in water (in words) [1]: insoluble in water
Compound: CC(C)(Oc1ccc(Sc2ccc(Cl)cc2)cc1)C(=O)N(CCO)CCSCCCCCCCCCCSCCN(CCO)C(=O)C(C)(C)Oc1ccc(Sc2ccc(Cl)cc2)cc1 [CRL 40 254, 3,20-di[p-(p-chlorophenylthio)phenoxy-isobutyryl]-6,17-dithia-3,20-diaza-1,22-docosanediol]

solubility in water (in words) [1]: insoluble in water
Compound: CC(C)(Oc1ccc(Oc2ccc(Cl)cc2)cc1)C(=O)NCCO [CRL 40 309, N-Hydroxyethyl-2-[4-(4-chlorophenoxy)-phenoxy]-2-methylpropionamide]

solubility in water (in words) [1]: soluble in water
Compound: CC(C)(CNCCO)Oc1ccc(Oc2ccc(Cl)cc2)cc1 [CRL 40 311, N-Ethanol-2-[4-(4-chlorophenoxy)-phenoxy]-2-methyl-1-propylamine hydrochloride]

Compound: Cl.NC(COc1ccc(Oc2ccc(Cl)cc2)cc1)=NO [CRL 40 337, 4-(4-Chlorophenoxy)-phenoxy-acetamidoxime hydrochloride]
solubility in water (in words) [1]: partially soluble in water

Compound: Cl.N=C(N)COc1ccc(Oc2ccc(Cl)cc2)cc1 [CRL 40 338, 4-(4-Chlorophenoxy)-phenoxy-acetamidine hydrochloride]
solubility in water (in words) [1]: soluble in water

solubility in alcohol (in words) [1]: soluble in alcohol
solubility in water (in words) [1]: insoluble in water
Compound: CC(C)(Oc1ccc(S(=O)(=O)c2ccc(Cl)cc2)cc1)C(=O)O [CRL 40,239, 4-(4-chlorophenylsulphonyl)-phenoxy-isobutyric acid]

solubility in water (in words) [1]: insoluble in water
Compound: CC(C)(Sc1ccc(Oc2ccc(Cl)cc2)cc1)C(=O)O [CRL 40,275, 4-(4-chlorophenoxy)-phenylthio-isobutyric acid]

solubility in water (in words) [1]: insoluble in water
Compound: CC(C)(CNCCO)Sc1ccc(Oc2ccc(Cl)cc2)cc1 [CRL 40,279, N-Hydroxyethyl-4-(4-chlorophenoxy)phenylthio-isobutylamine]

solubility in water (in words) [1]: water-insoluble
Compound: O=C(CSc1ccc(Oc2ccc(Cl)cc2)cc1)OCCSCCCCCCCCCCSCCOC(=O)CSc1ccc(Oc2ccc(Cl)cc2)cc1 [CRL 40,284, 3,14-Dithia-1,16-hexadecyl di-[p-(p-chlorophenoxy)-phenylthio-acetate]]

Compound: CC(C)(Oc1ccc(Oc2ccc(Cl)cc2)cc1)C(=O)O [CRL 40,308, 4-(4-Chlorophenoxy)-phenoxy-isobutyric acid]
solubility in water (in words) [1]: insoluble in water

solubility in hot alcohol (in words) ([1]; hot alcohol): soluble in hot alcohol
solubility in water (in words) [1]: insoluble in water
Compound: CC(C)(Oc1ccc(S(=O)(=O)c2ccc(Cl)cc2)cc1)C(=O)OCCNCCSCCCCCCCCCCSCCNCCOC(=O)C(C)(C)Oc1ccc(S(=O)(=O)c2ccc(Cl)cc2)cc1 [CRL 40241, 6,17-Dithia-3,20-diaza-1,22-docosanediol di-p-(p-chlorophenylsulphonyl)-phenoxy-isobutyrate]

Compound: p-(p-Chlorophenylthio)-phenylthioacetic acid [CRL 40,386]
reduction in the concentration of cholesterol in the plasma [2, 3]: about 20%
reduction in the concentration of lipids in the plasma [2, 3]: about 20%
reduction in the (total) lipids ([2]; oral 100 mg/kg, 4 days): 42%
reduction in the cholesterol ([2]; oral 100 mg/kg, 4 days): 26%
